Results on 98 molecules are retold here after PubChem BioAssay AID1033 (Sanford-Burnham Center for Chemical Genomics, 2008).

The source made the active and inactive calls. No rule for the calls is given here. Where only a bound is given, the exact number is not on record here.

The Kd is a measure of binding affinity in units of concentration.

The target of this assay is Chaperone protein DnaK (Escherichia coli (strain K12)) (UniProt P0A6Y8). Description: E. coli DnaK SBD ligand binding – biophysical, NMR, chaperone (AID 1033). The following applies: Purified DnaK SBD.
Sequence of Chaperone protein DnaK (Escherichia coli (strain K12)) (P0A6Y8 whole entry, looked up): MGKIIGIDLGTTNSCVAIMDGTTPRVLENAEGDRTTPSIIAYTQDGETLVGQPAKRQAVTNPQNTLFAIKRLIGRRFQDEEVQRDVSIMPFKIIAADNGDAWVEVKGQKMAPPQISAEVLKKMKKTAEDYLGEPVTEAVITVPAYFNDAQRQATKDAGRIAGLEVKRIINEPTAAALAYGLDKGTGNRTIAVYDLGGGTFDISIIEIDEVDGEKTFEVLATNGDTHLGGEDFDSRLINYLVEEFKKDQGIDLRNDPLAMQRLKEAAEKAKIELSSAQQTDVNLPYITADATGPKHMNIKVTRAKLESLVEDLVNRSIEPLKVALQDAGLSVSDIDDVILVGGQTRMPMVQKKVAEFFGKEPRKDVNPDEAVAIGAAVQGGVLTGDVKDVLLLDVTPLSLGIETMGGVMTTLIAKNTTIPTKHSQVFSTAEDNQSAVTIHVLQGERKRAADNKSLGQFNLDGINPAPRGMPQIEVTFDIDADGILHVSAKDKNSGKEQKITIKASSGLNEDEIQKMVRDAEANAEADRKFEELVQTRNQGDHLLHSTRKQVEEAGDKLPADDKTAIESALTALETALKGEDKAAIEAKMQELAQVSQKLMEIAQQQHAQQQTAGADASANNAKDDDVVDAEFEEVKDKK
As for `CNC(=O)Nc1cccc(C(F)(F)F)c1`, the Kd is > 4 mM (inactive).

On to `Cc1cc(C(=O)NC2=NCCS2)cs1`, for which the Kd was > 4 mM (inactive).

Turning to `CN(C)S(=O)(=O)c1ccccc1C#N`, the Kd is > 4 mM (inactive).

Turning to `CC1(C)C2CC[C@]3(C)C(C(=O)C=C4[C@@H]5C[C@@](C)(C(=O)O)CC[C@]5(C)CC[C@]43C)[C@@]2(C)CC[C@@H]1O` (stereo partly drawn), the Kd was > 4 mM (inactive).

As to `O=c1[nH]c2c(c(=O)n1C1CCCCC1)CCC2`, the Kd is > 4 mM (inactive).

As for `O=C(c1ccc2c(c1)OCO2)N1CCC2(CC1)OCCO2`, the Kd was > 4 mM (inactive).

With `Nc1nc(-c2ccncc2)cs1`, the Kd is > 4 mM (inactive).

Consider `Cc1cccc(CO)n1`, for which the Kd is > 4 mM (inactive).

In the case of `CC(=O)Oc1cc(-c2coc3cc(OC(C)=O)c(OC(C)=O)c(OC(C)=O)c3c2=O)cc(OC(C)=O)c1OC(C)=O`, the Kd was > 4 mM (inactive).

As to `Cc1noc(C)c1C(=O)NCc1ccco1`, the Kd was > 4 mM (inactive).

As to `Cc1cccc(C(C)C)c1NC(=O)c1cccnc1`, the Kd was > 4 mM (inactive).

As for `C=Cc1c(C)c2cc3[nH]c(cc4nc(cc5nc(cc1[nH]2)C(C)=C5CCC(=O)O)C(CCC(=O)O)=C4C)c(C)c3C=C`, the Kd is > 4 mM (inactive).

Take `Cn1c2ccccc2n2c(=S)[nH]nc12`: the Kd was > 4 mM (inactive).

As for `Oc1ccc([C@H]2Oc3cc(O)cc(O)c3C[C@H]2O)cc1`, the Kd is > 4 mM (inactive).

Regarding `CCN(CC)S(=O)(=O)c1ccc(F)cc1`, the Kd is > 4 mM (inactive).

For `O=C(O)C1NCCc2ccccc21` (stereo not drawn), the Kd is > 4 mM (inactive).

For `Cc1c(C(=O)N2CCOCC2)oc2c1C(=O)CC(C)(C)C2`, the Kd is > 4 mM (inactive).

On to `CC12CCC(O)CC1CCC1C2[C@H](O)CC2(C)C(C3=CC(=O)OC3)CCC12O` (stereo partly drawn), for which the Kd was > 4 mM (inactive).

For `O=C1C2C3C=CC(O3)C2C(=O)N1c1ccccc1` (stereo not drawn), the Kd was > 4 mM (inactive).

Regarding `CSc1ccccc1NC(=O)c1ccc(C)o1`, the Kd was > 4 mM (inactive).

As for `[O-][n+]1c2ccccc2[n+]([O-])c2cc(O)ccc21`, the Kd was > 4 mM (inactive).

As for `COc1ccc(CC(=O)c2ccc(O)cc2O)cc1`, the Kd was > 4 mM (inactive).

Consider `Cc1ccc(C)c(S(=O)(=O)NCc2cccnc2)c1`, for which the Kd is > 4 mM (inactive).

Consider `COc1cc(C(=S)N2CCC(C(N)=O)CC2)ccc1O`, for which the Kd is > 4 mM (inactive).

Take `CN1C(=O)CC(=O)N(C)c2ccccc21`: the Kd is > 4 mM (inactive).

With `CCC(C)C(=O)OC1[C@@H]2CC3=C4CC(=O)O[C@@H](c5ccoc5)[C@]4(C)CCC3C(C)(C2=O)[C@@H](CC(=O)OC)C1(C)C` (stereo partly drawn), the Kd was > 4 mM (inactive).

Turning to `CN1CCC(N2CCCC(C(N)=O)C2)CC1` (stereo not drawn), the Kd is > 4 mM (inactive).

In the case of `O=c1cccc2n1C[C@H]1CNCC2C1`, the Kd is > 4 mM (inactive).

As to `COC(=O)c1c(OC)cc2c(c1C)Oc1c(Cl)c(O)c(Cl)c(C)c1C(=O)O2`, the Kd was > 4 mM (inactive).

For `CC(=O)Nc1nc(-c2cccs2)cs1`, the Kd is > 4 mM (inactive).

As for `COc1cccc2c(=O)n(CC(N)=O)ccc12`, the Kd was > 4 mM (inactive).

Turning to `C=CCSc1[nH]c(=O)cc(C)c1C(N)=O`, the Kd is > 4 mM (inactive).

In the case of `COC1=CC(=O)C=C(OC)C1=O`, the Kd was > 4 mM (inactive).

As for `O=C(Nc1c[nH]c(=O)[nH]c1=O)c1cccs1`, the Kd was > 4 mM (inactive).

For the molecule `COc1ccc(NC(=O)C(N)=O)cc1Cl`, the Kd is > 4 mM (inactive).

For `CS(=O)(=O)Nc1cc2c3c(c1)CCN3C(=O)CC2`, the Kd was > 4 mM (inactive).

In the case of `CC(=O)c1cccc(NC(=O)NN2CCOCC2)c1`, the Kd is > 4 mM (inactive).

Take `O=C1CC(NCc2ccco2)C(=O)NN1` (stereo not drawn): the Kd is > 4 mM (inactive).

In the case of `C=C1C(=O)OC2CC1C(OC(C)=O)C/C(C)=C/CC/C(C)=C/CC[C@]2(C)O` (stereo partly drawn), the Kd was > 4 mM (inactive).

In the case of `OC[C@H]1O[C@@H](O[C@H]2[C@H](O)[C@@H](O)[C@@H](O)O[C@@H]2CO)[C@H](O)[C@@H](O)[C@@H]1O`, the Kd is > 4 mM (inactive).

Take `C=CC(=O)N1CC2CC(C1)c1cccc(=O)n1C2` (stereo not drawn): the Kd was > 4 mM (inactive).

Turning to `O=C(Nc1ccon1)c1cccc(C(F)(F)F)c1`, the Kd was > 4 mM (inactive).

As to `NC(=O)CS(=O)(=O)c1ccc(Cl)cc1`, the Kd was > 4 mM (inactive).

Consider `Cc1cc(C(=O)Nc2nnc(C(F)(F)F)s2)no1`, for which the Kd was > 4 mM (inactive).

On to `CN1CN/C(=N\[N+](=O)[O-])N(c2ccccc2)C1`, for which the Kd is > 4 mM (inactive).

Turning to `COC(=O)CC1NC2CCCCC2NC1=O` (stereo not drawn), the Kd is > 4 mM (inactive).

Regarding `O=[N+]([O-])c1cccc(-c2nnco2)c1`, the Kd is > 4 mM (inactive).

On to `COCC(=O)Nc1ccc(C)c(Cl)c1`, for which the Kd was > 4 mM (inactive).

Consider `O=C1C2C3C=CC(C3)C2C(=O)N1c1nccs1` (stereo not drawn), for which the Kd is > 4 mM (inactive).

Regarding `O=C(Nc1ccccc1)C(=O)NC1CC1`, the Kd was > 4 mM (inactive).

Consider `CC(=O)O[C@@H]1CC2C(C)(C)C=CC(=O)[C@]2(C)C2CC[C@@]3(C)[C@H](c4ccoc4)OC(=O)C4OC43[C@@]21C` (stereo partly drawn), for which the Kd was > 4 mM (inactive).

As for `O=C(c1ccncc1)N1CCN(C(=O)c2ccco2)CC1`, the Kd was > 4 mM (inactive).

For `CCC1(CC)C(=O)N=C(N)NC1=O`, the Kd is > 4 mM (inactive).

Consider `C/C=C/C(=O)Nc1ccc(NC(C)=O)cc1`, for which the Kd is > 4 mM (inactive).

With `CC1SC(=NC(=O)c2ccncc2)NC1=O` (stereo not drawn), the Kd is > 4 mM (inactive).

On to `CC1CCC(N2CCN(c3ncccn3)CC2)CC1` (stereo not drawn), for which the Kd is > 4 mM (inactive).

For the molecule `O=c1[nH]cnc2c1nnn2Cc1ccccc1`, the Kd was > 4 mM (inactive).

As for `C[C@@H]1O[C@@H](O[C@H]2[C@H](Oc3cc(O)c4c(=O)cc(-c5ccc(O)cc5)oc4c3)O[C@H](CO)[C@@H](O)[C@@H]2O)[C@H](O)[C@H](O)[C@H]1O`, the Kd is > 4 mM (inactive).

With `COc1ccc(-c2coc3cc(OC)cc(OC)c3c2=O)cc1`, the Kd was > 4 mM (inactive).

As to `Nc1c(Nc2ccccc2)c2ccccc2oc1=O`, the Kd was > 4 mM (inactive).

Turning to `O=C1C2CCCCC2C(=O)N1Cc1cccnc1` (stereo not drawn), the Kd was > 4 mM (inactive).

`COc1cc2c3cc1Oc1c(OC)c(OC)cc4c1[C@@H](Cc1cccc(c1)Oc1ccc(c(O)c1)C[C@@H]3N(C)CC2)N(C)CC4`: the Kd is > 4 mM (inactive).

On to `C=CCNC(=O)c1ccc(Cl)cc1Cl`, for which the Kd was > 4 mM (inactive).

Consider `Cc1nc(-c2ccc(C(=O)O)s2)cs1`, for which the Kd was > 4 mM (inactive).

Consider `Cc1nn(-c2ccccc2C(=O)O)c(=O)c2ccccc12`, for which the Kd is > 4 mM (inactive).

Consider `Cn1nc(C(=O)N2CCCC2)c2ccccc2c1=O`, for which the Kd is > 4 mM (inactive).

In the case of `COc1ccc(C2(CN)CCOCC2)cc1OC`, the Kd was > 4 mM (inactive).

In the case of `CC(C)=CCc1c2c(c3occ(-c4ccc(O)c(O)c4)c(=O)c3c1O)C=CC(C)(C)O2`, the Kd is > 4 mM (inactive).

Turning to `O=C(C1CCC(C(=O)N2CCCC2)CC1)N1CCCC1` (stereo not drawn), the Kd is > 4 mM (inactive).

Take `CN1CCn2c1nc(N1CCCCC1)nc2=O`: the Kd was > 4 mM (inactive).

With `CCn1nnc(NC(=O)c2cc3ccccc3o2)n1`, the Kd was > 4 mM (inactive).

As for `CCOC(=O)C(C)c1n[nH]c(=O)c2ccccc12` (stereo not drawn), the Kd was > 4 mM (inactive).

Consider `O=c1ccnc(Nc2ccccc2O)[nH]1`, for which the Kd is > 4 mM (inactive).

Consider `COc1ccc2c(c1)OCC(Cc1ccc(OC)c(OC(C)=O)c1)C2=O` (stereo not drawn), for which the Kd was > 4 mM (inactive).

In the case of `Cc1n[nH]c(=S)n1-c1ccc(C(=O)O)cc1`, the Kd was > 4 mM (inactive).

In the case of `Nc1ccc(S(=O)(=O)Nc2ccc(F)cc2F)cc1`, the Kd is > 4 mM (inactive).

Consider `CC(C)(C)c1ccc(SCC(N)=O)cc1`, for which the Kd is > 4 mM (inactive).

Turning to `CN(C)C(=O)CCNS(=O)(=O)c1ccccc1`, the Kd is > 4 mM (inactive).

In the case of `Cc1cc(C(=O)N2CCCCCC2)cs1`, the Kd is > 4 mM (inactive).

Regarding `Cc1cc(C)c(-c2cc(C(F)(F)F)no2)c(=O)[nH]1`, the Kd was > 4 mM (inactive).

Consider `COc1cc2occc2c2oc(=O)ccc12`, for which the Kd is > 4 mM (inactive).

Turning to `Brc1ccc(-c2nc(-c3ccncc3)no2)o1`, the Kd is > 4 mM (inactive).

For the molecule `CCOc1ccc(C)cc1S(=O)(=O)n1ccc(C)n1`, the Kd was > 4 mM (inactive).

Regarding `CC(O)(C(=O)O)c1ccccc1` (stereo not drawn), the Kd was > 4 mM (inactive).

In the case of `COc1cc(/C=C/C(=O)O)cc(OC)c1OC`, the Kd is > 4 mM (inactive).

`COc1ccc(-c2nc3nc(C)cc(C)n3n2)cc1`: the Kd was > 4 mM (inactive).

For the molecule `COc1nc(C#N)c(N2CCOCC2)o1`, the Kd was > 4 mM (inactive).

With `Cc1cc(NC(=O)c2cccc(S(C)(=O)=O)c2)no1`, the Kd was > 4 mM (inactive).

As for `OC12CC3CC(CC(C3)C1)C2`, the Kd is > 4 mM (inactive).

For the molecule `CSc1n[nH]c(NCc2cccs2)n1`, the Kd is > 4 mM (inactive).

Turning to `CN(C)S(=O)(=O)NCc1ccc2c(c1)OCO2`, the Kd is > 4 mM (inactive).

With `O=c1cnnc(NCc2ccc(F)cc2)[nH]1`, the Kd is > 4 mM (inactive).

With `CC(=O)O[C@H]1CC[C@@]2(C)C(C[C@@H](OC(C)=O)[C@@]3(C)C4=CC(=O)O[C@@H](c5ccoc5)[C@]4(C)CCC23)C1(C)C` (stereo partly drawn), the Kd is > 4 mM (inactive).

For `CCOC(=O)c1c(C)nc2cc(C)ccn12`, the Kd is > 4 mM (inactive).

`O=C(O)c1csc2ccccc12`: the Kd was > 4 mM (inactive).

Take `Nc1cc(C(F)(F)F)ccc1N1CCOCC1`: the Kd was > 4 mM (inactive).

Take `O=C(O)c1ccc(-n2ccnc2)cc1`: the Kd is > 4 mM (inactive).

As for `COc1ccc2c(C)cc(=O)oc2c1`, the Kd was > 4 mM (inactive).
